# Measured values taken from ChEMBL document CHEMBL4507258 (2021).
# Experiments:
# [1] = system: Tyrosine-protein kinase ABL1 (Homo sapiens), P00519 [F317I]; settings: Compound concentration 1000.0 nM
# [2] = system: Tyrosine-protein kinase ABL1 (Homo sapiens), P00519 [Q252H]; settings: Compound concentration 1000.0 nM
# [3] = biological target: Atypical kinase COQ8B, mitochondrial (Homo sapiens) (UniProt Q96D53); settings: Compound concentration 1000.0 nM
# [4] = biological target: RAC-gamma serine/threonine-protein kinase (Homo sapiens) (UniProt Q9Y243); settings: Compound concentration 1000.0 nM
# [5] = biological target: ALK tyrosine kinase receptor (Homo sapiens) (UniProt Q9UM73); settings: Compound concentration 1000.0 nM
# [6] = biological target: Ankyrin repeat and protein kinase domain-containing protein 1 (Homo sapiens) (UniProt Q8NFD2); settings: Compound concentration 1000.0 nM
# [7] = biological target: Aurora kinase B (Homo sapiens) (UniProt Q96GD4); settings: Compound concentration 1000.0 nM
# [8] = biological target: Calcium/calmodulin-dependent protein kinase kinase 2 (Homo sapiens) (UniProt Q96RR4); settings: Compound concentration 1000.0 nM
# [9] = biological target: Cyclin-dependent kinase 19 (Homo sapiens) (UniProt Q9BWU1); settings: Compound concentration 1000.0 nM
# [10] = biological target: Serine/threonine-protein kinase Chk2 (Homo sapiens) (UniProt O96017); settings: Compound concentration 1000.0 nM
# [11] = biological target: Dual specificity protein kinase CLK2 (Homo sapiens) (UniProt P49760); settings: Compound concentration 1000.0 nM
# Dual specificity protein kinase CLK2 (Homo sapiens), sequence (P49760 whole entry, looked up, canonical isoform): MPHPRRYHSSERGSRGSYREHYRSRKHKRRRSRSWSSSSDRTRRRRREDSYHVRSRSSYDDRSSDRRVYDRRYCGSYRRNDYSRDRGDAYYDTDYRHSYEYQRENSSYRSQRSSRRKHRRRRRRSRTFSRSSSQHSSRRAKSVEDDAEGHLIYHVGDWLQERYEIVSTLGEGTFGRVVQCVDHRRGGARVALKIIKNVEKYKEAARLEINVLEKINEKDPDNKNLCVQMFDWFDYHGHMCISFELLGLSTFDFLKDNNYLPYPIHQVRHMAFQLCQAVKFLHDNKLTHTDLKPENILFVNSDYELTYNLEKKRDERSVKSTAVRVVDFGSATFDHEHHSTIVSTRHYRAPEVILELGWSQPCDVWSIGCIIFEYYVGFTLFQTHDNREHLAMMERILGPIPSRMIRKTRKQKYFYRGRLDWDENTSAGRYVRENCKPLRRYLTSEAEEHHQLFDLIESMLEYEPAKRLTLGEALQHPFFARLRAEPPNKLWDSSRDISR
# [12] = biological target: Casein kinase I isoform alpha-like (Homo sapiens) (UniProt Q8N752); settings: Compound concentration 1000.0 nM
# Casein kinase I isoform alpha-like (Homo sapiens), sequence (Q8N752 whole entry, canonical isoform): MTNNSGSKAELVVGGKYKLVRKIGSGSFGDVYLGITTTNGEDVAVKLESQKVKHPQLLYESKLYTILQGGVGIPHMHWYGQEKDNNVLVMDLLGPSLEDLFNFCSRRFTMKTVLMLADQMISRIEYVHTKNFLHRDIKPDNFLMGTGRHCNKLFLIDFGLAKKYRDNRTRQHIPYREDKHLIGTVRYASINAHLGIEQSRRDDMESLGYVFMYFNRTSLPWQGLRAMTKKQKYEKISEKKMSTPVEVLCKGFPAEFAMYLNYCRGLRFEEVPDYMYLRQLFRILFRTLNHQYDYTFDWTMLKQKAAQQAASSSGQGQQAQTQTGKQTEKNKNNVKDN
# [13] = biological target: Casein kinase I isoform delta (Homo sapiens) (UniProt P48730); settings: Compound concentration 1000.0 nM
# [14] = biological target: Casein kinase I isoform gamma-3 (Homo sapiens) (UniProt Q9Y6M4); settings: Compound concentration 1000.0 nM
# [15] = biological target: Mitogen-activated protein kinase kinase kinase 12 (Homo sapiens) (UniProt Q12852); settings: Compound concentration 1000.0 nM
# [16] = biological target: Myotonin-protein kinase (Homo sapiens) (UniProt Q09013); settings: Compound concentration 1000.0 nM
# [17] = biological target: Dual specificity tyrosine-phosphorylation-regulated kinase 2 (Homo sapiens) (UniProt Q92630); settings: Compound concentration 1000.0 nM
# Dual specificity tyrosine-phosphorylation-regulated kinase 2 (Homo sapiens), sequence (Q92630 whole entry): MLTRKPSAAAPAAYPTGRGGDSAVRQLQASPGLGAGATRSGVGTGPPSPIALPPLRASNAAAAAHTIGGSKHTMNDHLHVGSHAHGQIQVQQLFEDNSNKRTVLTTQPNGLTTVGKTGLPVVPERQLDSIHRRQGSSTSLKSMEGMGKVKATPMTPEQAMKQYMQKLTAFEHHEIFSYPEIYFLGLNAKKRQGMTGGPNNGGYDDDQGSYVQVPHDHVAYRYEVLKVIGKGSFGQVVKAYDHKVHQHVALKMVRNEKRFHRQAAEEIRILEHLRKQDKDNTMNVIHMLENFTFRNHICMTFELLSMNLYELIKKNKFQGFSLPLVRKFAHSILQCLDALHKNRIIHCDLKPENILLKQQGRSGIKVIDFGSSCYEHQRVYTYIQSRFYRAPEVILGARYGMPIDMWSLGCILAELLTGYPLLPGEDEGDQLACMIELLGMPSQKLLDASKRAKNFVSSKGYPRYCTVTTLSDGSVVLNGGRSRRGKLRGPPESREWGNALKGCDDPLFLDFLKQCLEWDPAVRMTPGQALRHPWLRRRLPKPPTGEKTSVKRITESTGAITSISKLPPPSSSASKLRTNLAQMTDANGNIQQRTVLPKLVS
# [18] = biological target: Ephrin type-B receptor 3 (Homo sapiens) (UniProt P54753); settings: Compound concentration 1000.0 nM
# Ephrin type-B receptor 3 (Homo sapiens), sequence (P54753 whole entry): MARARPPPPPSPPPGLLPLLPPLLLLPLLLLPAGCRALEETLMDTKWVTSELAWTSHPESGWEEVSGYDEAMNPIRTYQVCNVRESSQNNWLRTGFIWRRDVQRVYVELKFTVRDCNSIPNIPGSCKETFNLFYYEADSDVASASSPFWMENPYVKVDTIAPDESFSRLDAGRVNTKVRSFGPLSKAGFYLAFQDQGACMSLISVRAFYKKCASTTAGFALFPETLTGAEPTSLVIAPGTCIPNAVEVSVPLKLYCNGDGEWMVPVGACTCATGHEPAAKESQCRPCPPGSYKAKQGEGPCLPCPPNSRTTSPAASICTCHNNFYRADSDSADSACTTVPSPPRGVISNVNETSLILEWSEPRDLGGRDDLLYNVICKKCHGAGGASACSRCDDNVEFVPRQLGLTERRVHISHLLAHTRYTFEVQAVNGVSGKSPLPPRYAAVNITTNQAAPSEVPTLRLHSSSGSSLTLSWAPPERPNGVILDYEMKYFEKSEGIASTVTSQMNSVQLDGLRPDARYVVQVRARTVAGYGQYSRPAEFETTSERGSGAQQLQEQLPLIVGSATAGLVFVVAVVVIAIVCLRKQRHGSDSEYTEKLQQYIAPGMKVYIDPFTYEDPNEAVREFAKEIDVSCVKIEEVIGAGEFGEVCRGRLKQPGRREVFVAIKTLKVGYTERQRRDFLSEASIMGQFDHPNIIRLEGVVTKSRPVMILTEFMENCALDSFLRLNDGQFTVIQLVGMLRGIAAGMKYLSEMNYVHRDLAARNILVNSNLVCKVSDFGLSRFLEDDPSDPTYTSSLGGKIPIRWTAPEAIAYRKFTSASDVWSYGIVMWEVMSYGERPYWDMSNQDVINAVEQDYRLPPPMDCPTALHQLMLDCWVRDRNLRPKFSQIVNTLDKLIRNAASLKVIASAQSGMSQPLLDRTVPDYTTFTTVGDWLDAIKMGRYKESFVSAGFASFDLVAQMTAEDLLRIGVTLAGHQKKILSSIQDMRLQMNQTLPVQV
# [19] = biological target: Tyrosine-protein kinase Fer (Homo sapiens) (UniProt P16591); settings: Compound concentration 1000.0 nM
# [20] = system: Receptor-type tyrosine-protein kinase FLT3 (Homo sapiens), P36888 [UNDEFINED MUTATION]; settings: Compound concentration 1000.0 nM
# [21] = biological target: Vascular endothelial growth factor receptor 3 (Homo sapiens) (UniProt P35916); settings: Compound concentration 1000.0 nM
# [22] = biological target: Mast/stem cell growth factor receptor Kit (Homo sapiens) (UniProt P10721); settings: Compound concentration 1000.0 nM
# [23] = biological target: LIM domain kinase 2 (Homo sapiens) (UniProt P53671); settings: Compound concentration 1000.0 nM
# [24] = system: Hepatocyte growth factor receptor (Homo sapiens), P08581 [Y1235D]; settings: Compound concentration 1000.0 nM
# [25] = biological target: Mitogen-activated protein kinase kinase kinase 10 (Homo sapiens) (UniProt Q02779); settings: Compound concentration 1000.0 nM
# [26] = biological target: Serine/threonine-protein kinase mTOR (Homo sapiens) (UniProt P42345); settings: Compound concentration 1000.0 nM
# [27] = biological target: Serine/threonine-protein kinase Nek2 (Homo sapiens) (UniProt P51955); settings: Compound concentration 1000.0 nM
# [28] = biological target: Serine/threonine-protein kinase OSR1 (Homo sapiens) (UniProt O95747); settings: Compound concentration 1000.0 nM
# [29] = biological target: Mitogen-activated protein kinase 13 (Homo sapiens) (UniProt O15264); settings: Compound concentration 1000.0 nM
# [30] = biological target: 3-phosphoinositide-dependent protein kinase 1 (Homo sapiens) (UniProt O15530); settings: Compound concentration 1000.0 nM
# [31] = biological target: Calcium-dependent protein kinase 1 (Plasmodium falciparum) (UniProt P62344); settings: Compound concentration 1000.0 nM
# [32] = system: Phosphatidylinositol 4,5-bisphosphate 3-kinase catalytic subunit alpha isoform (Homo sapiens), P42336 [C420R]; settings: Compound concentration 1000.0 nM
# [33] = biological target: Membrane-associated tyrosine- and threonine-specific cdc2-inhibitory kinase (Homo sapiens) (UniProt Q99640); settings: Compound concentration 1000.0 nM
# [34] = biological target: Serine/threonine-protein kinase PknB (Mycobacterium tuberculosis) (UniProt P9WI81); settings: Compound concentration 1000.0 nM
# [35] = biological target: Proto-oncogene tyrosine-protein kinase receptor Ret (Homo sapiens) (UniProt P07949); settings: Compound concentration 1000.0 nM
# [36] = system: Proto-oncogene tyrosine-protein kinase receptor Ret (Homo sapiens), P07949 [V804L]; settings: Compound concentration 1000.0 nM
# [37] = biological target: Serine/threonine-protein kinase RIO3 (Homo sapiens) (UniProt O14730); settings: Compound concentration 1000.0 nM
# [38] = biological target: Ribosomal protein S6 kinase alpha-4 (Homo sapiens) (UniProt O75676); settings: Compound concentration 1000.0 nM
# Ribosomal protein S6 kinase alpha-4 (Homo sapiens), sequence (O75676 whole entry, looked up): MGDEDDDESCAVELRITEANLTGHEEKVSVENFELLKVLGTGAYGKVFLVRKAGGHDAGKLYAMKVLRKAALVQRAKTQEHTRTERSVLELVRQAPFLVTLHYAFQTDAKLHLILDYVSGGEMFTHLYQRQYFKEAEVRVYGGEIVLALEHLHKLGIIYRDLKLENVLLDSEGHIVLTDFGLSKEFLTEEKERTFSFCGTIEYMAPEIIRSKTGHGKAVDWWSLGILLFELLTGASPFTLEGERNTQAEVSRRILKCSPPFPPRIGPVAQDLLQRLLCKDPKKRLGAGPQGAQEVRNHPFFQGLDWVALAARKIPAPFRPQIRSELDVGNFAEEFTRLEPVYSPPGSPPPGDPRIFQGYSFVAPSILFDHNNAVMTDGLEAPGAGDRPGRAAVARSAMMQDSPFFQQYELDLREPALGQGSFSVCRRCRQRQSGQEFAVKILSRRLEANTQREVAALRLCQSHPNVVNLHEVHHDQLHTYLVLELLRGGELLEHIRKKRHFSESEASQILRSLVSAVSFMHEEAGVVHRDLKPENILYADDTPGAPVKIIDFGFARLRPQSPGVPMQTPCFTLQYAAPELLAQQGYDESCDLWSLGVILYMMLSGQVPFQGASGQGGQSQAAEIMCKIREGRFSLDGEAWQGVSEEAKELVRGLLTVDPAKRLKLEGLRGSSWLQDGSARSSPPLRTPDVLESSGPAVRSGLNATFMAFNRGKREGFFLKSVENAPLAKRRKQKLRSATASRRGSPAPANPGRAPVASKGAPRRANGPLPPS
# [39] = biological target: Tyrosine-protein kinase SYK (Homo sapiens) (UniProt P43405); settings: Compound concentration 1000.0 nM
# [40] = biological target: TGF-beta receptor type-2 (Homo sapiens) (UniProt P37173); settings: Compound concentration 1000.0 nM
# [41] = biological target: Angiopoietin-1 receptor (Homo sapiens) (UniProt Q02763); settings: Compound concentration 1000.0 nM
# Angiopoietin-1 receptor (Homo sapiens), sequence (Q02763 whole entry): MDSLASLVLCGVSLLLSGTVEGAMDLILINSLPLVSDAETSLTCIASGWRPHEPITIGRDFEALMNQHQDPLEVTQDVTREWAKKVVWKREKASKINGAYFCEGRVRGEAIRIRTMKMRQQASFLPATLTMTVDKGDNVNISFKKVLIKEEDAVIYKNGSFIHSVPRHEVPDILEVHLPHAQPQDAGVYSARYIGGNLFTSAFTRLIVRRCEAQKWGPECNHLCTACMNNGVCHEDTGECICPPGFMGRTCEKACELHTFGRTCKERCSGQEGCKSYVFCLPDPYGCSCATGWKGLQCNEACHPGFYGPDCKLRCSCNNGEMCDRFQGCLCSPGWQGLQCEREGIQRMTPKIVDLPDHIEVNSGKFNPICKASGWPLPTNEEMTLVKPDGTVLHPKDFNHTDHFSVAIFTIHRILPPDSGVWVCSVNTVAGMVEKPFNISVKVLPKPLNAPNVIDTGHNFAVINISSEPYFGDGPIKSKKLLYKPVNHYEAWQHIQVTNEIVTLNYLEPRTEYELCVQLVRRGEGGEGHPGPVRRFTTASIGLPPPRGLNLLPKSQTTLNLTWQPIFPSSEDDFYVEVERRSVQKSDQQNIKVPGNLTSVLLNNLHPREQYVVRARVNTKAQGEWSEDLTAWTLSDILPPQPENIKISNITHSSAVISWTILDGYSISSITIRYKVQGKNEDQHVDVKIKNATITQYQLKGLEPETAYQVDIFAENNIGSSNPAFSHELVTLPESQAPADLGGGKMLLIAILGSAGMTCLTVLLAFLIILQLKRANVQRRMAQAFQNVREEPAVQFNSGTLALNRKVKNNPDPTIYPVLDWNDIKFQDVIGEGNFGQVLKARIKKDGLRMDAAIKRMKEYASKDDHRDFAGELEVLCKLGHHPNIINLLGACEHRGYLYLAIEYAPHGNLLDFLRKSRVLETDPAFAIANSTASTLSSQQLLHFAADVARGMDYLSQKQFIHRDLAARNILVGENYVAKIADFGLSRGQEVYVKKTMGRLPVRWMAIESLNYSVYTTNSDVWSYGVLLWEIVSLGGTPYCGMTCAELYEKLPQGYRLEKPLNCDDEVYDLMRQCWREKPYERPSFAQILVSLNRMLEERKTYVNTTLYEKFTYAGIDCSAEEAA
# [42] = biological target: Serine/threonine-protein kinase WNK3 (Homo sapiens) (UniProt Q9BYP7); settings: Compound concentration 1000.0 nM
# [43] = biological target: D(3) dopamine receptor (Homo sapiens) (UniProt P35462); settings: Compound concentration 10.0 uM
# D(3) dopamine receptor (Homo sapiens), sequence (P35462 whole entry): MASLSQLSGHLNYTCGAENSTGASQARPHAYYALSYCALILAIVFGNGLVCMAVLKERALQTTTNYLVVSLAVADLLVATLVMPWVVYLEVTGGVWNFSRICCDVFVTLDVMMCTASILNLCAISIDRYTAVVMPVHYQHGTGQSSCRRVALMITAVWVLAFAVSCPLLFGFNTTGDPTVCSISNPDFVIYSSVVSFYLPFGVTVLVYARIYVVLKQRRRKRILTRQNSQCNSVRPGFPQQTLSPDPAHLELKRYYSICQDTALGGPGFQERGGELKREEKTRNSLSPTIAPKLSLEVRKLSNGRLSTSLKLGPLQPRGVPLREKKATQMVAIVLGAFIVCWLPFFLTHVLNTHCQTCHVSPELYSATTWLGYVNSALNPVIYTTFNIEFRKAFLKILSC
# [44] = biological target: Histamine H4 receptor (Homo sapiens) (UniProt Q9H3N8); settings: Compound concentration 10.0 uM
# [45] = biological target: Alpha-1A adrenergic receptor (Homo sapiens) (UniProt P35348); settings: Compound concentration 10.0 uM
structure (smiles),measurement,setting,value
CCCCN(CCCC)C(=O)CN1C[C@H](c2cc(OC)c3c(c2)OCO3)[C@@H](C(=O)O)[C@@H]1CC(C)(C)CCC [ABT-546],residual activity,[1],72.5%
same,residual activity,[2],97.7%
same,residual activity,[3],0%
same,residual activity,[4],100%
same,residual activity,[5],58.3%
same,residual activity,[6],55.1%
same,residual activity,[7],100%
same,residual activity,[8],100%
same,residual activity,[9],100%
same,residual activity,[10],100%
same,residual activity,[11],100%
same,residual activity,[12],100%
same,residual activity,[13],100%
same,residual activity,[14],100%
same,residual activity,[15],72.1%
same,residual activity,[16],100%
same,residual activity,[17],71.4%
same,residual activity,[18],100%
same,residual activity,[19],100%
same,residual activity,[20],46.4%
same,residual activity,[21],100%
same,residual activity,[22],100%
same,residual activity,[23],100%
same,residual activity,[24],100%
same,residual activity,[25],97%
same,residual activity,[26],100%
same,residual activity,[27],100%
same,residual activity,[28],89.5%
same,residual activity,[29],100%
same,residual activity,[30],100%
same,residual activity,[31],82%
same,residual activity,[32],100%
same,residual activity,[33],100%
same,residual activity,[34],85%
same,residual activity,[35],100%
same,residual activity,[36],100%
same,residual activity,[37],74.9%
same,residual activity,[38],75%
same,residual activity,[39],100%
same,residual activity,[40],100%
same,residual activity,[41],90.5%
same,residual activity,[42],100%
same,inhibition,[43],17.3%
same,inhibition,[44],-0.606%
same,inhibition,[45],-2.13%
CCCCN(CCCC)C(=O)CN1C[C@@H](c2cc(OC)c3c(c2)OCO3)[C@H](C(=O)O)[C@H]1CC(C)(C)CCC [A-545],residual activity,[1],94.3%
same,residual activity,[2],94.6%
same,residual activity,[3],80.2%
same,residual activity,[4],100%
same,residual activity,[5],100%
same,residual activity,[6],95.7%
same,residual activity,[7],100%
same,residual activity,[8],87.2%
same,residual activity,[9],99.6%
same,residual activity,[10],87.8%
same,residual activity,[11],100%
same,residual activity,[12],91.1%
same,residual activity,[13],98.9%
same,residual activity,[14],100%
same,residual activity,[15],89.9%
same,residual activity,[16],100%
same,residual activity,[17],82.9%
same,residual activity,[18],100%
same,residual activity,[19],100%
same,residual activity,[20],97.4%
same,residual activity,[21],100%
same,residual activity,[22],100%
same,residual activity,[23],86.8%
same,residual activity,[24],100%
same,residual activity,[25],65.4%
same,residual activity,[26],100%
same,residual activity,[27],98.7%
same,residual activity,[28],94%
same,residual activity,[29],100%
same,residual activity,[30],77.3%
same,residual activity,[31],86.9%
same,residual activity,[32],99.4%
same,residual activity,[33],100%
same,residual activity,[34],92.8%
same,residual activity,[35],86.1%
same,residual activity,[36],100%
same,residual activity,[37],100%
same,residual activity,[38],97.2%
same,residual activity,[39],100%
same,residual activity,[40],98.6%
same,residual activity,[41],100%
same,residual activity,[42],65.5%
same,inhibition,[43],16.6%
same,inhibition,[44],4.1%
same,inhibition,[45],23.3%
